The subject of series [1] is myeloid cells. Description: Quantification of myeloid cells (mpo/l-plastin in situ hybridization) in irradiated embryos. The format is in vivo, zebrafish. The settings on record: p53^e7/e7 background, IR, 28 hpf. An excerpt:
FIG. 2 provides a series of fluorescent images, western blot images, in situ hybridization images and two sets of graphs as outlined below. chk1 knockdown radiosensitizes p53 mutants but is otherwise compatible with normal zebrafish development. (A) Fluorescence images of representative embryos of indicated genotypes+/−chk1 MO after 0- or 12.5-Gy IR. 5 bpmmMO, 5-base-pair mismatch MO. (B) Quantified AO responses of indicated genotypes with or without IR (12.5 Gy) and chk1 MO. Gray bars, p53^+/+ background; black bars, p53^e7/e7 background. AO staining was quantified in ≧8 embryos per condition, with ≧1000 embryos scored. All data are reported as means+/−SEM. ***P<0.0001 (two-tailed Student's t-test). […] (E) Fluorescence images of representative embryos of indicated genotypes. p53^e6 is the N168K mutation, corresponding to human residue 200. p53MO, MO against the p53 5′UTR. (F) Fluorescence images of live transgenic embryos injected with the indicated MOs at the 1-cell stage and expressing EGFP in the notochord (top, embryos photographed at 24 hpf) or in myeloid progenitors (bottom, embryos photographed at 16.5 hpf). […] (G) Quantification of myeloid cells in 28 hpf embryos generated as indicated (x-axis) and processed as in panel H. Gray bars, p53^+/+ background; black bars, p53^e7/e7 background. mpo/lplastin staining was quantified in 15 embryos per condition. […]

Series [2] has as its system ATM. Description: Western blot of ATM activity (Chk2 phosphorylation at Thr68) in HeLa cells. The format is cell-based, human. As to conditions: 10 Gy IR+Gö6976 1 μM. As for the experimental part:
(§1) Protein extract (5-60 μg) was added to 4× gel loading buffer and 10× denaturing solution (Invitrogen) in appropriate proportions, and samples were incubated at 70° C. for 10 min. Samples were run at 200V for 1 hr on a 4-12% Bis-tris gradient gel (Invitrogen). After electrophoresis, samples were transferred for 1.5 hr (350 mA) to a Nitrocellulose membrane (Millipore) using a submerged transfer apparatus (Bio-Rad). Membranes were then blocked with 5% milk in Tris-buffered saline with 0.1% tween (TBST) and probed overnight at 4° C. with the following antibodies: anti-zebrafish Chk1 (diluted 1:200), anti-zebrafish Chk2 (1:200), anti-P-Cdc2 (1:1000), anti-actin (1:2000), anti-human ATR (1:500) and Stressgen anti-human-caspase-3 (1:500) for zebrafish immunoblots; and anti-caspase-2 (1:200), Upstate anti-caspase-3 (1:500), anti-P-ATM (1:500), anti-ATM (1:500), Santa Cruz anti-human Chk1 (1:1000), Santa Cruz anti-human Chk2 (1:1000), anti-P-Chk1 (1:500), anti-P-Chk2 (1:500), anti-P-H2A.X (1:2000), anti-P-cdc25C (1:1000), anti-P-HSP27 (1:1000), anti-HSP27 (1:1000), anti-P-Cdc2 (1:1000), anti-p53 (1:1000) and anti-GAPDH (1:5000) for immunoblots of human tumor cell lysates. Detailed references for all primary antibodies can be found in the ‘Antibodies’ section elsewhere herein.

Series [3] addresses T1, Chk1 (Homo sapiens, UniProt O14757).
T1 sequence (O14757 1-476): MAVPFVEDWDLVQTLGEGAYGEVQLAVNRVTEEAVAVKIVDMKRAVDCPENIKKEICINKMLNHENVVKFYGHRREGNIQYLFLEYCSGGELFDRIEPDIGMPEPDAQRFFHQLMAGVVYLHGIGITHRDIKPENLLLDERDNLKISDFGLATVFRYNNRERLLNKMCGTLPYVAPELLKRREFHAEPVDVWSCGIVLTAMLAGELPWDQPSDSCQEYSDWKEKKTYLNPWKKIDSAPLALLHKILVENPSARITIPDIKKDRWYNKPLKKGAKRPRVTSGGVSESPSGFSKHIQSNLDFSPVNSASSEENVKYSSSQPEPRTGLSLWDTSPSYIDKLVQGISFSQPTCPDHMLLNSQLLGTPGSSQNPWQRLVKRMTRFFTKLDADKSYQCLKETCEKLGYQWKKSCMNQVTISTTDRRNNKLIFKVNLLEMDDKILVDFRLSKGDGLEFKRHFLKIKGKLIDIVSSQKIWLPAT
Description: Western blot of Chk1 activity (Cdc2 Tyr15 and CDC25C Ser216 phosphorylation) in irradiated HeLa cells. The format is cell-based. The arrangement: endogenous in cells; host or cells: HeLa. As to conditions: 10 Gy. As for the experimental part: as §1
On the technique in general: Immunoblotting shows a protein as a band on a membrane.

On to “chk1 MO: morpholino against zebrafish chk1 atg/5'UTR, aggcacagccattatgcaatcttcg (SEQ ID NO: 11) (AGGCACAGCCATTATGCAATCTTCG; all phosphorodiamidate morpholino (PMO))”, for which the “average reduction in myeloid cell numbers” value in series [1] is 2 fold.
As for `Cn1c2ccccc2c2c3c(c4c5ccccc5n(CCC#N)c4c21)CNC3=O` [Gö6976], in series [2], the “phosphorylated Chk2 at Thr68 (readout for ATM activity)” value is “synergistic increases”. The Chk1 inhibition result in series [3] (1 μM) is “potent Chk1 inhibition”. Besides, the “phosphorylation of Chk1 readouts CDC2 and CDC25C” value in series [3] (increasing concentrations, 24 hpIR) was “inhibited the phosphorylation of CDC2 and CDC25C”.

Values taken from patent US9000027B2, “Chk1 suppresses a caspase-2 apoptotic response to DNA damage that bypasses p53, bcl-2 and caspase-3” (Dana-Farber Cancer Institute, Inc., priority 2008, dated 2015).
